Data from US10940150B2, “Thymine derivatives and quinazoline-dione derivatives for the inhibition of HSP27” (TECHNISCHE UNIVERSITAET DRESDEN, priority 2014, dated 2021).

What was measured:
HSP27 = HSP27 (Homo sapiens, UniProt P04792); assay: Capillary electrophoresis of heat-denatured citrate synthase protein precipitates; type: biochemical; settings: for Rel. quantity of protein prec. CS: 10 μmol/L
Method: (§1) Since the heat-denatured protein aggregates of the citrate synthase from Example 1 are not water-soluble, these can be separated completely from the supernatant by means of centrifugation at room temperature at 16,000×g, 10 min. By using capillary electrophoresis, the compositions of the separated precipitates can be shown and quantified. The relative quantity of protein of precipitated citrate synthase serves as a measure of the efficacy of the test substances.
(§2) In each case, 481 nmol/L HSP27 and 1.44 μmol/L citrate synthase in 40 mmol/L HEPES buffer, pH 7.4, were employed. The relative quantity of protein of the precipitated citrate synthase in each case was normalized using a defined quantity of BSA as internal standard. The relative quantity of protein that precipitated when using 750 μmol/L BVDU was set at 1. The other test substances (2 representatives of phenothiazine derivatives of general formula (V), 2 representatives of purine derivatives of formula (I) or (II)) were each employed at a concentration of 10 μmol/L.
as §1, with “Example 2” for “Example 1”
as §2, with “nM” for “nmol/L”, “thymine” for “purine”, “were” for “were each”, “μmol/L in each case.” for “μmol/L.”
Otherwise, the experiments were performed as described above: […]

RPMI-8226 cells = assay: Development of resistance to bortezomib in RPMI-8226 cells; type: cell-based; settings: bortezomib 0.075-0.275 ng/ml + 1 μmol/L test substance (FIG. 9a)
[1] = 10 μmol/L vs 750 μmol/L BVDU, 43° C. for 70 minutes (Table 3)
[2] = 43° C. for 70 minutes, relative to 750 μmol/L BVDU = 1 (Table 3)

Chain of HSP27 (P04792 whole entry): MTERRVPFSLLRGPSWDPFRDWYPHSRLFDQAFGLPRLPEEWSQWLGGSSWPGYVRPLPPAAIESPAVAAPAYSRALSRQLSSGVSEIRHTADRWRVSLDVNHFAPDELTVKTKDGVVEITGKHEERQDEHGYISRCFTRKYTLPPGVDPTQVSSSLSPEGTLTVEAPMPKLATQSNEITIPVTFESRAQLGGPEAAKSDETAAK

SMILES: CCCc1cn([C@H]2C[C@H](n3cc(C)c(=O)[nH]c3=O)O[C@@H]2CO)nn1 [3′-Deoxy-3′-(4-propyl-1H-1,2,3-triazol-1-yl)thymidine]
- Efficacy compared with BVDU (HSP27; [1]): 59.59 x
- Rel. quantity of protein prec. CS (HSP27; [2]): 0.79

SMILES: Cc1cn([C@H]2C[C@H](n3cc(-c4ccccc4)nn3)[C@@H](CO)O2)c(=O)[nH]c1=O [3′-Deoxy-3′-(4-phenyl-1H-1,2,3-triazol-1-yl)thymidine]
- Efficacy compared with BVDU (HSP27; [1]): 59.07 x
- Rel. quantity of protein prec. CS (HSP27; [2]): 0.79

SMILES: Cc1cn(C/C=C\CNC(=O)Cc2ccc3ccccc3c2)c(=O)[nH]c1=O [N-[(2Z)-4-(5-Methyl-2,4-dioxo-3H-pyrimidin-1-yl)but-2-en-1-yl]-2-(naphthalen-2-yl)acetamide]
- Efficacy compared with BVDU (HSP27; [1]): 62.51 x
- Rel. quantity of protein prec. CS (HSP27; [2]): 0.83

SMILES: Cc1cn(CCCCNC(=O)C(c2ccccc2)c2ccccc2)c(=O)[nH]c1=O [N-[4-(5-Methyl-2,4-dioxo-3H-pyrimidin-1-yl)butyl]-2,2-diphenylacetamide]
- Efficacy compared with BVDU (HSP27; [1]): 58.97 x
- Rel. quantity of protein prec. CS (HSP27; [2]): 0.79

SMILES: Cc1cn([C@H]2C[C@H](n3cc(CC4CCCC4)nn3)[C@@H](CO)O2)c(=O)[nH]c1=O [3′-[4-(Cyclopentylmethyl)-1H-1,2,3-triazol-1-yl]-3′-deoxythymidine]
- Efficacy compared with BVDU (HSP27; [1]): 49.63 x
- Rel. quantity of protein prec. CS (HSP27; [2]): 0.66

SMILES: O=C(Cc1ccc2ccccc2c1)NC/C=C\Cn1ccc(=O)[nH]c1=O [N-[(2Z)-4-(2,4-Dioxo-3H-pyrimidin-1-yl)but-2-en-1-yl]-2-(naphthalen-2-yl)acetamide]
- Efficacy compared with BVDU (HSP27; [1]): 86.25 x
- Rel. quantity of protein prec. CS (HSP27; [2]): 1.15

SMILES: CCCCc1cn([C@H]2C[C@H](n3cc(C)c(=O)[nH]c3=O)O[C@@H]2CO)nn1 [3′-(4-Butyl-1H-1,2,3-triazol-1-yl)-3′-deoxythymidine]
- Efficacy compared with BVDU (HSP27; [1]): 57.08 x
- Rel. quantity of protein prec. CS (HSP27; [2]): 0.76

SMILES: O=C(NC/C=C\Cn1ccc(=O)[nH]c1=O)C1c2ccccc2OC2C=CC=CC21 (stereo not drawn) [N-[(2Z)-4-(2,4-Dioxo-3H-pyrimidin-1-yl)but-2-en-1-yl]-9,9a-dihydro-4aH-xanthene-9-carboxamide]
- Efficacy compared with BVDU (HSP27; [1]): 63.38 x
- Rel. quantity of protein prec. CS (HSP27; [2]): 0.85

SMILES: Cc1cn([C@H]2C[C@H](n3cc(-c4ccccn4)nn3)[C@@H](CO)O2)c(=O)[nH]c1=O [3′-Deoxy-3′-[4-(2-pyridinyl)-1H-1,2,3-triazol-1]-yl]thymidine]
- Efficacy compared with BVDU (HSP27; [1]): 62.86 x
- Rel. quantity of protein prec. CS (HSP27; [2]): 0.84

SMILES: Cc1cn(C/C=C\CNC(=O)C2c3ccccc3-c3ccccc32)c(=O)[nH]c1=O [N-[(2Z)-4-(5-Methyl-2,4-dioxo-3H-pyrimidin-1-yl)but-2-en-1-yl]-9H-fluorene-9-carboxamide]
- Efficacy compared with BVDU (HSP27; [1]): 64.31 x
- Rel. quantity of protein prec. CS (HSP27; [2]): 0.86

SMILES: Cc1cn([C@H]2C[C@H](n3cc(-c4ccc(Cl)c(Cl)c4)nn3)[C@@H](CO)O2)c(=O)[nH]c1=O [3′-Deoxy-3′-[4-(3,4-dichlorophenyl)-1H-1,2,3-triazol-1-yl]-thymidine]
- Efficacy compared with BVDU (HSP27; [1]): 64.21 x
- Rel. quantity of protein prec. CS (HSP27; [2]): 0.86

SMILES: Cc1cn(C2C[C@H](n3cc(-c4ccc(Br)cc4)nn3)[C@@H](CO)O2)c(=O)[nH]c1=O (stereo partly drawn) [1-[(4S,5S)-4-[4-(4-Bromophenyl)-1,2,3-triazol-1-yl]-5-(hydroxymethyl)oxolan-2-yl]-5-methyl-3H-pyrimidine-2,4-dione]
- Efficacy compared with BVDU (HSP27; [1]): 48.14 x
- Rel. quantity of protein prec. CS (HSP27; [2]): 0.64

SMILES: Cc1cn(C2C[C@H](n3cc(-c4cccc(Br)c4)nn3)[C@@H](CO)O2)c(=O)[nH]c1=O (stereo partly drawn) [1-[(4S,5S)-4-[4-(3-Bromophenyl)-1H-1,2,3-triazol-1-yl]-5-(hydroxymethyl)oxolan-2-yl]-5-methyl-1,2,3,4-tetrahydropyrimidine-2,4-dione]
- Efficacy compared with BVDU (HSP27; [1]): 60.88 x
- Rel. quantity of protein prec. CS (HSP27; [2]): 0.81

SMILES: CCCCCc1cn([C@H]2C[C@H](n3cc(C)c(=O)[nH]c3=O)O[C@@H]2CO)nn1 [3′-Deoxy-3′-(4-pentyl-1H-1,2,3-triazol-1-yl)thymidine]
- Efficacy compared with BVDU (HSP27; [1]): 52.57 x
- Rel. quantity of protein prec. CS (HSP27; [2]): 0.70

SMILES: Cc1cn(C/C=C\CNC(=O)c2cccc3ccccc23)c(=O)[nH]c1=O [N-[(2Z)-4-(5-Methyl-2,4-dioxo-3H-pyrimidin-1-yl)but-2-en-1-yl]naphthalene-1-carboxamide]
- Efficacy compared with BVDU (HSP27; [1]): 58.73 x
- Rel. quantity of protein prec. CS (HSP27; [2]): 0.78

SMILES: Cc1cn(CC=CCNC(=O)Cc2ccc(-c3ccccc3)cc2)c(=O)[nH]c1=O [2-biphenyl-4-yl-N-[4-(5-methyl-2,4-dioxo-3,4-dihydro-2H-pyrimidin-1-yl)-but-2-enyl]-acetamide]
- development of resistance to the cytostatic agent bortezomib (RPMI-8226 cells): significantly inhibited
- living cells at the end of the experiment (RPMI-8226 cells; without HSP27 inhibitor 510,000 cells/ml): 380,000 living cells per ml medium
- times higher activity than BVDU for the inhibition of the HSP27 protein (HSP27; 10 μmol/L vs 750 μmol/L BVDU, 43° C. for 120 minutes): 61 times
- Efficacy compared with BVDU (HSP27; 10 μmol/L vs 750 μmol/L BVDU, 43° C. for 120 minutes (Table 2)): 60.75 x
- Rel. quantity of protein prec. CS (HSP27; 43° C. for 120 minutes, relative to 750 μmol/L BVDU = 1 (Table 2)): 0.81
- BVDU equivalent dose (HSP27; based on 100 mg BVDU): 1.6 mg

SMILES: Cc1cn(CCCCNC(=O)C2c3ccccc3Oc3ccccc32)c(=O)[nH]c1=O [N-[4-(5-Methyl-2,4-dioxo-3H-pyrimidin-1-yl)butyl]-9H-xanthene-9-carboxamide]
- Efficacy compared with BVDU (HSP27; [1]): 51.16 x
- Rel. quantity of protein prec. CS (HSP27; [2]): 0.68

SMILES: Cc1cn(CCCCNC(=O)Cc2ccc3ccccc3c2)c(=O)[nH]c1=O [N-[4-(5-Methyl-2,4-dioxo-3H-pyrimidin-1-yl)butyl]-2-(naphthalen-2-yl)acetamide]
- Efficacy compared with BVDU (HSP27; [1]): 56.36 x
- Rel. quantity of protein prec. CS (HSP27; [2]): 0.75

SMILES: COc1ccc(-c2cn([C@H]3CC(n4cc(C)c(=O)[nH]c4=O)O[C@@H]3CO)nn2)cc1 (stereo partly drawn) [1-[(4S,5S)-5-(Hydroxymethyl)-4-[4-(4-methoxyphenyl)-1,2,3-triazol-1-yl]oxolan-2-yl]-5-methyl-3H-pyrimidine-2,4-dione]
- Efficacy compared with BVDU (HSP27; [1]): 55.89 x
- Rel. quantity of protein prec. CS (HSP27; [2]): 0.75

SMILES: Cc1cn(C/C=C\CNC(=O)C(c2ccccc2)c2ccccc2)c(=O)[nH]c1=O [N-[(2Z)-4-(5-Methyl-2,4-dioxo-3H-pyrimidin-1-yl)but-2-en-1-yl]-2,2-diphenylacetamide]
- Efficacy compared with BVDU (HSP27; [1]): 61.19 x
- Rel. quantity of protein prec. CS (HSP27; [2]): 0.82

SMILES: Cc1cn([C@H]2C[C@H](n3cc(CCc4ccccc4)nn3)[C@@H](CO)O2)c(=O)[nH]c1=O [3′-Deoxy-3′-[4-(2-phenylethyl)-1H-1,2,3-triazol-1-yl]-thymidine]
- Efficacy compared with BVDU (HSP27; [1]): 55.67 x
- Rel. quantity of protein prec. CS (HSP27; [2]): 0.74

SMILES: Cc1cn([C@H]2C[C@H](n3cc(-c4ccc(F)cc4)nn3)[C@@H](CO)O2)c(=O)[nH]c1=O [3′-Deoxy-3′-[4-(4-fluorophenyl)-1H-1,2,3-triazol-1-yl]-thymidine]
- Efficacy compared with BVDU (HSP27; [1]): 49.69 x
- Rel. quantity of protein prec. CS (HSP27; [2]): 0.66

SMILES: Cc1cn([C@H]2C[C@H](n3cc(C(C)(C)C)nn3)[C@@H](CO)O2)c(=O)[nH]c1=O [3′-Deoxy-3′-[4-(2-methyl-2-propanyl)-1H-1,2,3-triazol-1-yl]thymidine]
- Efficacy compared with BVDU (HSP27; [1]): 46.01 x
- Rel. quantity of protein prec. CS (HSP27; [2]): 0.61

SMILES: O=C(Cc1ccc(-c2ccccc2)cc1)NC/C=C\Cn1ccc(=O)[nH]c1=O [N-[(2Z)-4-(2,4-Dioxo-3H-pyrimidin-1-yl)but-2-en-1-yl]-2-(4-phenylphenyl)acetamide]
- Efficacy compared with BVDU (HSP27; [1]): 66.15 x
- Rel. quantity of protein prec. CS (HSP27; [2]): 0.88

SMILES: Cc1cn(CCCCNC(=O)Cc2ccc(-c3ccccc3)cc2)c(=O)[nH]c1=O [N-[4-(5-Methyl-2,4-dioxo-3H-pyrimidin-1-yl)butyl]-2-(4-phenylphenyl)acetamide]
- Efficacy compared with BVDU (HSP27; [1]): 50.52 x
- Rel. quantity of protein prec. CS (HSP27; [2]): 0.67

SMILES: Cc1cn([C@H]2C[C@H](n3cc(-c4ccc(Cl)cc4)nn3)[C@@H](CO)O2)c(=O)[nH]c1=O [3′-[4-(4-Chlorophenyl)-1H-1,2,3-triazol-1-yl]-3′-deoxythymidine]
- Efficacy compared with BVDU (HSP27; [1]): 50.53 x
- Rel. quantity of protein prec. CS (HSP27; [2]): 0.67

SMILES: Cc1cn(C/C=C\CNC(=O)Cc2cccc3ccccc23)c(=O)[nH]c1=O [N-[(2Z)-4-(5-Methyl-2,4-dioxo-3H-pyrimidin-1-yl)but-2-en-1-yl]-2-(naphthalen-1-yl)acetamide]
- Efficacy compared with BVDU (HSP27; [1]): 60.44 x
- Rel. quantity of protein prec. CS (HSP27; [2]): 0.81

SMILES: Cc1cn(CCCCNC(=O)C2c3ccccc3-c3ccccc32)c(=O)[nH]c1=O [N-[4-(5-Methyl-2,4-dioxo-3H-pyrimidin-1-yl)butyl]-9H-fluorene-9-carboxamide]
- Efficacy compared with BVDU (HSP27; [1]): 43.30 x
- Rel. quantity of protein prec. CS (HSP27; [2]): 0.58
